Source: US9174991B2, “Crystalline form of pemetrexed disodium” (Azad Pharmaceutical Ingredients AG, priority 2009, dated 2015)
Structures can show the parent of a compound that is named as a salt. Where two headings read alike, the source gives them in different places.

How the values were obtained:
[1] = for H2O (KFT) / HPLC-purity (10.5 min) / PXRD / HPLC-purity: dark, air; for change in HPLC purity in any of the samples (in words): all relative humidities tested (5% to 70%)
[2] = for change in HPLC purity in the presence of light (in words) / change in color in the presence of light (in words): text says after 16 d
Method: (§1) To investigate the stability of the different forms of Pemetrexed Disodium a stability test concerning storage at different relative humidity, storage in the presence of light and stability under drying conditions was carried out.
The samples were stored in double PE plastic bags and exposed to daylight IT=20° C. to 25° C. IPCs were taken after 15 d.
(§2) HPLC analysis was done on an Agilent 1100 system equipped with DAD detector using a Zorbax SB-Phenyl column (150×4.6 mm, 3 μm). Measurements were done at 230 nm wavelengths at 25° C. using a flow of 1.0 mL/min and 8 min post-run time. […] Sample preparation: 10 mg sample in 25 mL water:ACN=1:1, 5 uL injection.

[3] = 70° C., 5 mbar; for change in HPLC-purity upon vacuum drying (in words): up to 9 d
Method: as §1
Four samples were stored at 70° 5 mbar in laboratory vacuum oven. IPC were taken after 2 d, 9 d
as §2

[4] = starting material, before storage
Method: HPLC analysis was done on an Agilent 1100 system equipped with DAD detector using a Zorbax SB-Phenyl column (150×4.6 mm, 3 μm). Measurements were done at 230 nm wavelengths at 25° C. using a flow of 1.0 mL/min and 8 min post-run time. As mobile phase water containing 0.03% TFA and acetonitrile containing 0.025% TFA were used, solvents were HPLC grade. Sample preparation: 10 mg sample in 25 mL water:ACN=1:1, 5 uL injection. Retention time Pemetrexed Disodium: 10.3 min.
PXRD: Routine PXRD measurements were carried out on a Bruker AXS D8Advance diffractometer equipped with CuKα source with CuKβ filter and a VANTEC detector (Ser. No.: 202964). Measurement parameters: 3° 2theta to 39.9° 2theta, step time: 2s, step size: 0.022°, T=25° C., X-ray generator: 35 kV/40 mA.

[5] = 5% to 12% relative humidity, 2 d, measured 11.7% (Form A 5.8%), 23° C.
[6] = 5% to 12% relative humidity, 5 d, measured 9.5% (Form A 5.3%), 24° C.
[7] = 5% to 12% relative humidity, 9 d, measured 9% (Form A 6%), 24° C.
[8] = 5% to 12% relative humidity, 16 d, measured 8.5% (Form A 5.8%), 24° C.
[9] = 27% to 33% relative humidity, 2 d, measured 29.8% (Form A 28%), 23° C.
[10] = 27% to 33% relative humidity, 5 d, measured 29% (Form A 27%), 24° C.
[11] = 27% to 33% relative humidity, 9 d, measured 31% (Form A 30%), 24° C.
[12] = 27% to 33% relative humidity, 16 d, measured 30.4% (Form A 28.7%), 24° C.
[13] = 39% to 50% relative humidity, 2 d, measured 41.1% (Form A 39%), 23° C.
[14] = 39% to 50% relative humidity, 5 d, measured 42.8% (Form A 38.6%), 24° C.
[15] = 39% to 50% relative humidity, 9 d, measured 48% (Form A 47%), 24° C.
[16] = 39% to 50% relative humidity, 16 d, measured 47.3% (Form A 46.4%), 24° C.
[17] = 60% to 70% relative humidity, 2 d, measured 61%, 22° C. (Form A 54%, 23° C)
[18] = 60% to 70% relative humidity, 5 d, measured 63% (Form A 57%), 24° C.
[19] = 60% to 70% relative humidity, 9 d, measured 69% (Form A 68%), 24° C.
[20] = 60% to 70% relative humidity, 16 d, measured 66.9% (Form A 67.2%), 24° C.
[21] = daylight, listed as Pemetrexed Disodium Form A
[22] = double PE plastic bags, daylight, 20° C. to 25° C., 15 d
[23] = 2 d, listed as Pemetrexed Disodium Heptahydrate

## Nc1nc(O)c2c(CCc3ccc(C(=O)N[C@@H](CCC(=O)O)C(=O)O)cc3)c[nH]c2n1 [Form A, disodium N-[4-[2-(2-amino-4,7-dihydro-4-oxo-3H-pyrrolo[2,3-d]-pyrimidin-5-yl)ethyl]benzoyl]-L-glutamic acid salt]
[1]; 5% to 12% rel. humidity (for Form A and Form IV: 7% to 12%), up to 16 d, listed as Pemetrexed Disodium Form A
  change in water content (in words): does not show a significant change
[1]; 5% to 12% rel. humidity (text for Form A: 7% to 12%), up to 16 d, listed as Pemetrexed Disodium Form A
  change in HPLC-purity (in words): does not show a significant change
[1]; [5]
  H2O (KFT): 3.5%
  HPLC-purity (10.5 min): 99.59%
  PXRD: Form A
[1]; [6]
  HPLC-purity (10.5 min): 99.33%
  PXRD: Form A
[1]; [7]
  HPLC-purity (10.5 min): 99.58%
  PXRD: Form A
[1]; [8]
  HPLC-purity: 99.50%
  PXRD: Form A
[1]; 27% to 33% rel. humidity, after 16 d
  change in HPLC-purity (in words): without visible change
[1]; 27% to 33% rel. humidity, up to 16 d, listed as Pemetrexed Disodium Form A
  change in water content (in words): significant in increase
[1]; [9]
  HPLC-purity: 99.60%
[1]; [10]
  HPLC-purity: 99.43%
  PXRD: Form A
[1]; [11]
  HPLC-purity: 99.57%
  PXRD: Form A
[1]; [12]
  HPLC-purity: 99.69%
  PXRD: Form A
[1]; [13]
  HPLC-purity: 99.68%
  PXRD: Form A
[1]; [14]
  HPLC-purity: 99.64%
  PXRD: Form A
[1]; [15]
  HPLC-purity: 99.62%
  PXRD: Form A
[1]; [16]
  HPLC-purity: 99.70%
  PXRD: Form A
[1]; 40% to 50% rel. humidity, after 16 d
  change in HPLC-purity (in words): without visible change
[1]; 40% to 50% rel. humidity, up to 16 d, listed as Pemetrexed Disodium Form A
  change in water content (in words): significant in increase
[1]; 60% to 70% rel. humidity
  uptake of water: 21%
[1]; 60% to 70% rel. humidity, after 9 d
  change in HPLC-purity (in words): without significant change
[1]; [17]
  HPLC-purity: 99.71%
  PXRD: Form A
[1]; [18]
  HPLC-purity: 99.51%
  PXRD: Form A
[1]; [19]
  HPLC-purity: 99.71%
  PXRD: Heptahydrate
[1]; 60% to 70% relative humidity, 9 d, measured 69% (Form A 68%), 24° C., listed as Pemetrexed Disodium Form A
  PXRD: complete transformation to Pemetrexed Disodium Heptahydrate
[1]; [20]
  HPLC-purity: 99.72%
  PXRD: Heptahydrate
[2]; daylight study, Start
  HPLC-purity: 99.71%
[2]; [21]
  change in HPLC purity in the presence of light (in words): a lot of decomposition products
  change in color in the presence of light (in words): significant formation of color
[2]; [22]
  Aspect: beige
  H2O (KFT): 2.44%
  HPLC-purity: 95.83%
[3]; 2 d
  HPLC-purity (10.5 min): 99.67%
  PXRD: Form A
[3]; 9 d
  Aspect: beige
  HPLC-purity (10.5 min): 99.41%
[3]; listed as Pemetrexed Disodium Form A
  change in HPLC-purity upon vacuum drying (in words): significant decrease
[4]
  HPLC-purity (10.5 min): 99.59%
  PXRD: Form A

## Nc1nc(O)c2c(CCc3ccc(C(=O)N[C@@H](CCC(=O)O)C(=O)O)cc3)c[nH]c2n1 [Heptahydrate, disodium N-[4-[2-(2-amino-4,7-dihydro-4-oxo-3H-pyrrolo[2,3-d]-pyrimidin-5-yl)ethyl]benzoyl]-L-glutamic acid salt]
[1]; [5]
  H2O (KFT): 19.7%
  HPLC-purity (10.5 min): 99.70%
[1]; [6]
  HPLC-purity (10.5 min): 99.73%
[1]; [7]
  HPLC-purity (10.5 min): 99.86%
[1]; [8]
  HPLC-purity: 99.88%
[1]; 5% to 12% relative humidity, 16 d, measured 8.5% (Form A 5.8%), 24° C., listed as Pemetrexed Disodium Heptahydrate
  PXRD: almost complete transformation to Pemetrexed Disodium 2.5 hydrate
[1]; [9]
  HPLC-purity: 99.74%
[1]; [10]
  HPLC-purity: 99.62%
[1]; [11]
  HPLC-purity: 99.84%
[1]; [12]
  HPLC-purity: 99.91%
  PXRD: Heptahydrate
[1]; [13]
  HPLC-purity: 99.84%
[1]; [14]
  HPLC-purity: 99.78%
  PXRD: Heptahydrate
[1]; [15]
  HPLC-purity: 99.81%
  PXRD: Heptahydrate
[1]; [16]
  HPLC-purity: 99.91%
  PXRD: Heptahydrate
[1]; [17]
  HPLC-purity: 99.63%
[1]; [18]
  HPLC-purity: 99.81%
  PXRD: Heptahydrate
[1]; [19]
  HPLC-purity: 99.81%
  PXRD: Heptahydrate
[1]; [20]
  HPLC-purity: 99.90%
  PXRD: Heptahydrate
[1]; up to 16 d
  change in HPLC purity in any of the samples (in words): No significant change
[2]; daylight study, Start
  HPLC-purity: 99.63%
[2]; daylight
  change in HPLC purity in the presence of light (in words): do not show significant changes
  change in color in the presence of light (in words): do not show significant changes
[2]; [22]
  HPLC-purity: 99.65%
[3]; 2 d
  HPLC-purity (10.5 min): 99.86%
  PXRD: 2.5 hydrate
[3]; [23]
  H2O (KFT): 8.4%
  PXRD: only 2.5 hydrate
[3]; 9 d
  HPLC-purity (10.5 min): 99.80%
[3]; listed as Pemetrexed Disodium Heptahydrate
  change in HPLC-purity upon vacuum drying (in words): No significant change
[4]
  HPLC-purity (10.5 min): 99.90%

## Nc1nc(O)c2c(CCc3ccc(C(=O)N[C@@H](CCC(=O)O)C(=O)O)cc3)c[nH]c2n1 [2.5 hydrate, disodium N-[4-[2-(2-amino-4,7-dihydro-4-oxo-3H-pyrrolo[2,3-d]-pyrimidin-5-yl)ethyl]benzoyl]-L-glutamic acid salt]
[1]; 5% to 12% rel. humidity (for Form A and Form IV: 7% to 12%), up to 16 d, listed as Pemetrexed Disodium 2.5 hydrate
  change in water content (in words): no significant change
[1]; 5% to 12% rel. humidity (text for Form A: 7% to 12%), up to 16 d, listed as Pemetrexed Disodium 2.5 hydrate
  change in HPLC-purity (in words): no significant change
[1]; [5]
  H2O (KFT): 8.9%
  HPLC-purity (10.5 min): 99.74%
  PXRD: 2.5 hydrate
[1]; [6]
  HPLC-purity (10.5 min): 99.82%
  PXRD: 2.5 hydrate
[1]; [7]
  HPLC-purity (10.5 min): 99.90%
  PXRD: 2.5 hydrate
[1]; [8]
  HPLC-purity: 99.80%
  PXRD: 2.5 hydrate
[1]; 27% to 33% rel. humidity, up to 16 d, listed as Pemetrexed Disodium 2.5 hydrate
  change in water content (in words): slight increase
[1]; [9]
  HPLC-purity: 99.82%
  PXRD: 2.5 hydrate
[1]; [10]
  HPLC-purity: 99.91%
  PXRD: 2.5 hydrate
[1]; [11]
  HPLC-purity: 99.84%
[1]; 27% to 33% relative humidity, 9 d, measured 31% (Form A 30%), 24° C., listed as Pemetrexed Disodium 2.5 hydrate
  PXRD: traces of Pemetrexed Disodium Heptahydrate
[1]; [12]
  HPLC-purity: 99.64%
[1]; [13]
  HPLC-purity: 99.83%
[1]; 39% to 50% relative humidity, 2 d, measured 41.1% (Form A 39%), 23° C., listed as Pemetrexed Disodium 2.5 hydrate
  PXRD: formation of Pemetrexed Disodium Heptahydrate
[1]; [14]
  HPLC-purity: 99.62%
  PXRD: Heptahydrate
[1]; 39% to 50% relative humidity, 5 d, measured 42.8% (Form A 38.6%), 24° C., listed as Pemetrexed Disodium 2.5 hydrate
  PXRD: transformation seems to be complete
[1]; [15]
  HPLC-purity: 99.74%
  PXRD: Heptahydrate
[1]; [16]
  HPLC-purity: 99.86%
  PXRD: Heptahydrate
[1]; 40% to 50% rel. humidity, up to 16 d, listed as Pemetrexed Disodium 2.5 hydrate
  change in water content (in words): increase
[1]; [17]
  HPLC-purity: 99.73%
  PXRD: Heptahydrate
[1]; 60% to 70% relative humidity, 2 d, measured 61%, 22° C. (Form A 54%, 23° C), listed as Pemetrexed Disodium 2.5 hydrate
  PXRD: transformation to Pemetrexed Disodium Heptahydrate is complete
[1]; [18]
  HPLC-purity: 99.86%
  PXRD: Heptahydrate
[1]; [19]
  HPLC-purity: 99.84%
  PXRD: Heptahydrate
[1]; [20]
  HPLC-purity: 99.83%
  PXRD: Heptahydrate
[1]; up to 16 d
  change in HPLC purity in any of the samples (in words): No significant change
[2]; daylight study, Start
  HPLC-purity: 99.73%
[2]; daylight
  change in HPLC purity in the presence of light (in words): do not show significant changes
  change in color in the presence of light (in words): do not show significant changes
[2]; [22]
  HPLC-purity: 99.74%
[3]; 2 d
  HPLC-purity (10.5 min): 99.88%
  PXRD: 2.5 hydrate
[3]; 9 d
  HPLC-purity (10.5 min): 99.80%
[3]; 9 d, listed as Pemetrexed Disodium 2.5 hydrate
  H2O (KFT): 7.9%
[3]
  change in HPLC-purity upon vacuum drying (in words): no significant change
[4]
  HPLC-purity (10.5 min): 99.86%
  PXRD: 2.5 hydrate
